According to patent US20090170762A1, “Treatment of Diabetes Related Obesity” (UUTech Limited, priority 2005, published 2009):
Ends that are not written are not given here.

Tests used:
BRIN-BD11 cells = assay: Insulin secretion from BRIN-BD11 cells; format: cell-based
Protocol: Tissue Culture. Chinese Hamster Lung (CHL) fibroblast cells stably transfected with the human GIP-R were cultured in DMEM tissue culture medium containing 10%. (v/v) fetal bovine serum, 1% (v/v) antibiotics (100 U/ml penicillin, 0.1 mg/ml streptomycin) (all from Gibco, Paisley, Strathclyde, Scotland). BRIN-BD11 cells were cultured in RPMI-1640 tissue culture medium containing 10% (v/v) fetal bovine serum, 1% (v/v) antibiotics (100 U/ml penicillin, 0.1 mg/ml streptomycin) and 11.1 mm glucose. The origin and secretory characteristics of these cells have been described in detail previously (McClenaghan, N. H. et al., 1996, Diabetes 45:1132-1140). The cells were maintained in sterile tissue culture flasks (Corning Glass Works, Sunderland, UK) at 37° C. in an atmosphere of 5% CO2 and 95% air using a LEEC incubator (Laboratory Technical Engineering, Nottingham, UK).
Methods. Insulin release from BRIN-BD11 cells was determined by use of cell monolayers as described previously (Gault, V. A. et al. 2002, Biochem. J. 367:913-920). In brief, BRIN-BD11 cells were seeded into 24-well plates (Nunc, Roskilde, Denmark) at a density of 1.5×10^5 cells per well and allowed to attach overnight in RPMI-1640 culture medium at 37° C. Acute tests for insulin secretion were preceded by 40 minutes pre-incubation at 37° C. in 1.0 ml Krebs Ringer Bicarbonate Buffer (KRBB, 115 mm NaCl, 4.7 mm KCl, 1.28 mm CaCl2, 1.2 mM MgSO4, 1.2 mm KH2PO4, 25 mM HEPES and 10 mm NaHCO3; pH 7.4 with NaOH) supplemented with 0.1% (w/v) BSA and 1.1 mM glucose. […] After 20 minutes incubation, the buffer was removed and used for measurement of insulin by radioimmunoassay (Flatt, P. R. and Bailey, C. J., 1981, Diabetologia 5:573-577).

Swiss TO mice [1] = assay: Daily (Pro3)GIP for 90 days in normal (TO) mice fed high fat, cafeteria, high carbohydrate or normal diets; format: in vivo, mouse; conditions: for Glycated Hemoglobin (%): 25 nmol/kg bw/day
Protocol: Young obese diabetic (ob/ob) mice derived from the colony maintained at Aston University, UK (Bailey, C. J. et al., 1982, Int. J. Obes. 6:11-21) were used at 5-7 weeks of age. Normal lean control mice from the same colony were used in comparative experiments (See Example 6, below). Animals were age-matched, divided into groups and housed individually in an air-conditioned room at 22±2° C. with a 12 hours light:12 hours dark cycle (08:00-20:00 hours). Drinking water and a standard rodent maintenance diet (Trouw Nutrition, Cheshire, UK) were freely available. In a separate experiment, Swiss Tylers Original (TO) mice purchased from Harlan Ltd. (Bicester, UK) were used at 5-7 weeks of age. Animals were housed as for ob/ob mice and given drinking water ad libitum. Normal TO mice were allowed free access to fed high fat diet (45% fat, 20% protein, 35% carbohydrate, 26.15 MJ/kg), high carbohydrate diet (10% fat, 20% protein, 70% carbohydrate, 18.80 MJ/kg) (Special Diets Service, Witham, Essex, UK), cafeteria diet (corresponding to approximately 33% fat, 19% protein, 48% carbohydrate, 16.39 MJ/kg) or normal rodent maintenance diet (10% fat, 30% protein, 60% carbohydrate; 14.2 MJ/kg, Trouw Nutrition, Cheshire, UK). The cafeteria diet comprised 6 daily rotations of 2 palatable food items per day (2 from: tuna, peanut butter, crisps, chocolate biscuits, madera cake, chocolate, luncheon meat, sausages, corned beef, cheese, marzipan). All animal experiments were carried out in accordance with the UK Animals (Scientific Procedures) Act 1986.
Food intake and body weight were recorded daily while plasma glucose and insulin concentrations were monitored at intervals of 3-6 days. Whole blood for the measurement of glycated hemoglobin was taken on day 60. In addition, plasma samples for measurement of cholesterol, circulating triglycerides, HDL-cholesterol (HDL-C) and LDL-cholesterol (LDL-C) were taken on day 60. […] Mice fasted for 18 hours were used to examine the metabolic response to 15 minutes feeding on day 60. In a separate series, pancreatic tissues were excised at the end of the 60-day treatment period and processed for immunohistochemistry or measurement of insulin following extraction with 5 ml/g of ice-cold acid ethanol (750 ml ethanol, 235 ml water, 15 ml concentrated HCl). Blood samples taken from the cut tip of the tail vein of conscious mice at the times indicated in the Figures were immediately centrifuged using a Beckman microcentrifuge (Beckman instruments, UK) for 30 seconds at 13,000×g. The resulting plasma was then aliquoted into fresh Eppendorf tubes and stored at −20° C. prior to glucose and insulin determinations. Normal control mice from the same genetic background were used for comparative purposes. […] Body weights were recorded daily and blood for determination of glycated hemoglobin was collected at end of study period.
Plasma glucose was assayed by an automated glucose oxidase procedure (Stevens, J. F., 1971, Clin. Chem. Acta 32:199-201) using a Beckman Glucose Analyzer II (Beckman Instruments, Galway, Ireland). Plasma and pancreatic insulin were assayed by a modified dextran-coated charcoal radioimmunoassay (Flatt, P. R., Bailey, C. J., 1981, Diabetologia 20:573-577). Plasma triglyceride and cholesterol levels were measured using a Hitachi Automatic Analyser 912 (Boehringer Mannheim, Germany). Glycated hemoglobin was determined using a commercially available kit purchased from Chirus Ltd. (Watford, UK).
Normal mice were fed the different diets indicated above ad libitum from 4-5 weeks of age. Treated groups of mice received intraperitoneal injection of ProGIP (25 nmoles/kg body weight) each day.

Swiss TO mice [2] = assay: Daily (Pro3)GIP for 60 days in Swiss TO mice previously fed high fat diet for 160 days; format: in vivo, mouse; conditions: high fat diet 160 days before, 25 nmoles/kg/day i.p. 60 days
Protocol: Parameters were measured at 3-4 daily intervals during a 60 day treatment period, which was preceded by a 160 days of feeding high fat diet. Mice were initially recruited into the study at 6-8 weeks of age. Control animals received standard rodent maintenance diet, 12.99 kj/g, (Harlan, UK) ad libitum. The animals were maintained on the respective diet for the duration of the study. High fat diet comprised 45% fat, 20% protein and 35% carbohydrate (26.15 kj/g) and was available ad libitum. (Special Diet Services, Essex, UK).
The results are shown in FIGS. 15A-B, which are a set of line graphs. Normal mice were fed the high fat diet indicated above ad libitum from 6-8 weeks of age. Treated groups of mice received intraperitoneal injection of ProGIP (25 nmoles/kg body weight) each day for a further 60 days while receiving the same high fat diet.

[3] = normal mice fed high fat or cafeteria diets, 90 days

Sequence: YAPGTFISDYSIAMDKIHQQDFVNWLLAQKGKKNDWKHNITQ [(Pro^3)GIP]
- Maximal insulin response (% GIP max) (BRIN-BD11 cells; BRIN-BD11 cells, 5.6 mm glucose, 20 min): 53 ± 5 % GIP max
- Insulin response in presence of 10^-7 M GIP (% GIP max) (BRIN-BD11 cells; BRIN-BD11 cells, 5.6 mm glucose, in presence of 10^-7 M native GIP): 64 ± 2 % GIP max
- effect on GIP-stimulated insulin secretion (BRIN-BD11 cells; in presence of GIP (10^-7 m)): significantly inhibited
- Glycated Hemoglobin (%) (Swiss TO mice [1]; Cafeteria diet, 90 days): 4.0 ± 0.32 %
- Glycated Hemoglobin (%) (Swiss TO mice [1]; High Carbohydrate diet, 90 days): 4.3 ± 0.12%
- Glycated Hemoglobin (%) (Swiss TO mice [1]; High Fat diet, 90 days): 4.0 ± 0.21 %
- Glycated Hemoglobin (%) (Swiss TO mice [1]; Normal diet, 90 days): 3.9 ± 0.14%
- body weight and glycated hemoglobin (parameters measured) (Swiss TO mice [1]; high carbohydrate or normal diets): did not affect
- body weight gain induced by excessive energy intake (Swiss TO mice [1]; high fat diet, lesser extent cafeteria diet): counters body weight gain
- decrease in body weight (Swiss TO mice [1]; [3]): up to 20%
- decrease in glycated hemoglobin (Swiss TO mice [1]; [3]): greater than 1%
- body weight (Swiss TO mice [2]): promotes body weight loss
- energy intake (Swiss TO mice [2]): not associated with significant decrease in energy intake
